Like-named read-outs stand apart in the source and are kept apart here.
Columns and labels:
[1] = target: T1, GDP loaded biotinylated KRas^G12C protein (Homo sapiens, UniProt P01116, G12C); test: KRasG12C functional assay; assay type: biochemical; conditions: HTRF FRET readout of SOS-mediated nucleotide exchange and GST-Raf RBD binding, samples incubated for 4 hrs
T1 construct: biotin (biotinylated); made in house
Protocol: KRasG12C Functional Assay
All enzyme and substrate solutions were prepared in assay buffer containing 20 mM HEPES (pH 7.5), 5 mM MgCl2, 150 mM NaCl, and 0.01% Tween 20. […] In a separate mix 20 nM GST-Raf Ras binding domain (GST-Raf RBD, purified in house) and 4 μg/ml anti-GST XL665 antibody (Cisbio) was prepared in assay buffer containing 50 mM Potassium Fluoride and 0.05 mg/ml BSA and equilibrated for 4 hours before adding 0.6 μM Guanosine 5′-[γ-thio]triphosphate (GTPγS, Sigma) and 0.08 μM SOS (purified in house). 5 μl of the GST-RAF RBD mix was then dispensed into each well of the assay plate. […] This is detected simultaneously via the specific binding interaction between active GTPγS KRas^G12C with GST-Raf RBD which brings the europium and XL665 into close proximity enabling an increased FRET signal to be detected on a Pherastar (BMG) plate reader equipped with the HTRF filter module. […] IC50 values were calculated from normalised dose-response response FRET data curve fitted in Genedata screener (Basel, Switzerland).

[2] = target: T1, GDP loaded biotinylated KRas^G12C protein; test: KRasG12C mass spectrometry adducting assay; assay type: binding; conditions: test compound final concentration 10 μM, 4 μM KRasG12C, react for 4 hours
Protocol: KRasG12C Mass Spectrometry Adducting Assay
Enzyme solutions were prepared in assay buffer containing 20 mM HEPES (pH 7.5), 5 mM MgCl2, and 150 mM NaCl. […] The plate was sealed before reading on a Xevo G2 QTOF (Waters) and Acquity LC system (Waters). […] Blank samples were run in between each test sample.
Data was analysed in Mass Lynx software (Waters), the Total ion count (TIC) trace was used and the eluted protein peak data combined. Using the combined spectrum the data was deconvoluted using MaxEnt1 method. The peak area for apo-protein KRas^G12C (APO) and KRAS+relative cmpd mass (adduct) were measured, and a percentage adduct was calculated using the following calculation:
Percent adduct=100*(area of adduct peak/(sum of APO+adduct peaks)

[3] = read-out: KRasG12C functional assay IC50 value

T1 sequence (P01116 1-188 isoform P01116-2 G12C): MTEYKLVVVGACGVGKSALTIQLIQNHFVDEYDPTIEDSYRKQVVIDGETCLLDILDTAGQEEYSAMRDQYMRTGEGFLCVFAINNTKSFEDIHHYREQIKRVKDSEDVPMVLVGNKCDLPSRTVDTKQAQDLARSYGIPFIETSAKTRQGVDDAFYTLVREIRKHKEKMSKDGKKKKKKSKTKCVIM

Structure (SMILES)	IC50 [1, 3]	KRasG12C M.S. Binding Mean adduct % [2]	IC50 ([1]; KRasG12C functional assay IC50 value (μM))
C=CC(=O)N1CCN2c3ncnc4cc(-c5cccc6c(C)n(C)nc56)c(Cl)c(c34)OC[C@@H]2C1 [Example 37, 1-[(8aS)-6-Chloro-5-(2,3-dimethyl-2H-indazol-7-yl)-8a,9,11,12-tetrahydropyrazino[2′,1′:3,4][1,4]oxazepino[5,6,7-de]quinazolin-10(8H)-yl]prop-2-en-1-one]	2.73 µM	49%	–
C=CC(=O)N1CCN2c3ncnc4cc(-c5cc(CO)ccc5F)c(Cl)c(c34)OC[C@@H]2C1 [Example 38, 1-[(8aS)-6-Chloro-5-[2-fluoro-5-(hydroxymethyl)phenyl]-8a,9,11,12-tetrahydropyrazino[2′,1′:3,4][1,4]oxazepino[5,6,7-de]quinazolin-10(8H)-yl]prop-2-en-1-one]	1.28 µM	82%	–
C=CC(=O)N1CCN2c3ncnc4cc(-c5cccc6cnn(C)c56)c(Cl)c(c34)OC[C@@H]2C1 [Example 39, 1-[(8aS)-6-Chloro-5-(1-methyl-1H-indazol-7-yl)-8a,9,11,12-tetrahydropyrazino[2′,1′:3,4][1,4]oxazepino[5,6,7-de]quinazolin-10(8H)-yl]prop-2-en-1-one]	0.803 µM	79%	–
C=CC(=O)N1CCN2c3ncnc4cc(-c5cc(F)ccc5F)c(Cl)c(c34)OC[C@@H]2C1 [Example 40, 1-[(8aS)-6-Chloro-5-(2,5-difluorophenyl)-8a,9,11,12-tetrahydropyrazino[2′,1′:3,4][1,4]oxazepino[5,6,7-de]quinazolin-10(8H)-yl]prop-2-en-1-one]	0.955 µM	67%	–
C=CC(=O)N1CCN2c3ncnc4cc(-c5ccccc5C)c(Cl)c(c34)OC[C@@H]2C1 [Example 41, 1-[(8aS)-6-Chloro-5-(2-methylphenyl)-8a,9,11,12-tetrahydropyrazino[2′,1′:3,4][1,4]oxazepino[5,6,7-de]quinazolin-10(8H)-yl]prop-2-en-1-one]	0.479 µM	100%	–
C=CC(=O)N1CCN2c3ncnc4cc(-c5ccccc5Cl)c(Cl)c(c34)OC[C@@H]2C1 [Example 42, 1-[(8aS)-6-Chloro-5-(2-chlorophenyl)-8a,9,11,12-tetrahydropyrazino[2′,1′:3,4][1,4]oxazepino[5,6,7-de]quinazolin-10(8H)-yl]prop-2-en-1-one]	0.247 µM	100%	–
C=CC(=O)N1CCN2c3ncnc4cc(-c5cccc6c5COCCO6)c(Cl)c(c34)OC[C@@H]2C1 [Example 43, 1-[(8aS)-6-Chloro-5-(2,3-dihydro-5H-1,4-benzodioxepin-6-yl)-8a,9,11,12-tetrahydropyrazino[2′,1′:3,4][1,4]oxazepino[5,6,7-de]quinazolin-10(8H)-yl]prop-2-en-1-one]	1.49 µM	56%	–
C=CC(=O)N1CCN2c3ncnc4cc(-c5cccc6ccc(=O)n(C)c56)c(Cl)c(c34)OC[C@@H]2C1 [Example 44, 8-[(8aS)-10-Acryloyl-6-chloro-8,8a,9,10,11,12-hexahydropyrazino[2′,1′:3,4][1,4]oxazepino[5,6,7-de]quinazolin-5-yl]-1-methylquinolin-2(1H)-one]	3.62 µM	51%	–
C=CC(=O)N1CCN2c3ncnc4cc(-c5cccc6c5ncn6C)c(Cl)c(c34)OC[C@@H]2C1 [Example 45, 1-[(8aS)-6-Chloro-5-(1-methyl-1H-benzimidazol-4-yl)-8a,9,11,12-tetrahydropyrazino[2′,1′:3,4][1,4]oxazepino[5,6,7-de]quinazolin-10(8H)-yl]prop-2-en-1-one]	1.58 µM	72%	–
C=CC(=O)N1CCN2c3ncnc4cc(-c5cn(C)c6ccccc56)c(Cl)c(c34)OC[C@@H]2C1 [Example 46, 1-[(8aS)-6-Chloro-5-(1-methyl-1H-indol-3-yl)-8a,9,11,12-tetrahydropyrazino[2′,1′:3,4][1,4]oxazepino[5,6,7-de]quinazolin-10(8H)-yl]prop-2-en-1-one]	1.51 µM	65%	–
C=CC(=O)N1CCN2c3ncnc4cc(-c5ccc(O)cc5)c(Cl)c(c34)OC[C@@H]2C1 [Example 52, 1-[(8aS)-6-Chloro-5-(4-hydroxyphenyl)-8a,9,11,12-tetrahydropyrazino[2′,1′:3,4][1,4]oxazepino[5,6,7-de]quinazolin-10(8H)-yl]prop-2-en-1-one]	5.36 µM	17%	–
C=CC(=O)N1CCN2c3ncnc4cc(-c5cccc6[nH]ccc56)c(Cl)c(c34)OC[C@@H]2C1 [Example 53, 1-[(8aS)-6-Chloro-5-(1H-indol-4-yl)-8a,9,11,12-tetrahydropyrazino[2′,1′:3,4][1,4]oxazepino[5,6,7-de]quinazolin-10(8H)-yl]prop-2-en-1-one]	–	74%	1.69 µM
C=CC(=O)N1CCN2c3ncnc4cc(-c5ccc(N)cc5C)c(Cl)c(c34)OC[C@@H]2C1 [Example 54, 1-[(8aS)-5-(4-Amino-2-methylphenyl)-6-chloro-8a,9,11,12-tetrahydropyrazino[2′,1′:3,4][1,4]oxazepino[5,6,7-de]quinazolin-10(8H)-yl]prop-2-en-1-one]	2.57 µM	60%	–

Further lines, with some results ahead:

IC50 [1, 3]	KRasG12C M.S. Binding Mean adduct % [2]	Structure (SMILES)	IC50 ([1]; KRasG12C functional assay IC50 value (μM))
9.82 µM	9%	C=CC(=O)N1CCN2c3ncnc4cc(-c5cccc6oc(=O)n(C)c56)c(Cl)c(c34)OC[C@@H]2C1 [Example 47, 4-[(8aS)-10-Acryloyl-6-chloro-8,8a,9,10,11,12-hexahydropyrazino[2′,1′:3,4][1,4]oxazepino[5,6,7-de]quinazolin-5-yl]-3-methyl-1,3-benzoxazol-2(3H)-one]	–
6.31 µM	68%	C=CC(=O)N1CCN2c3ncnc4cc(-c5cc(Cl)ccc5OC)c(Cl)c(c34)OC[C@@H]2C1 [Example 48, 1-[(8aS)-6-Chloro-5-(5-chloro-2-methoxyphenyl)-8a,9,11,12-tetrahydropyrazino[2′,1′:3,4][1,4]oxazepino[5,6,7-de]quinazolin-10(8H)-yl]prop-2-en-1-one]	–
7.53 µM	28%	C=CC(=O)N1CCN2c3ncnc4cc(-c5ccccc5CC(N)=O)c(Cl)c(c34)OC[C@@H]2C1 [Example 49, 2-{2-[(8aS)-10-Acryloyl-6-chloro-8,8a,9,10,11,12-hexahydropyrazino[2′,1′:3,4][1,4]oxazepino[5,6,7-de]quinazolin-5-yl]phenyl}acetamide]	–
0.956 µM	100%	C=CC(=O)N1CCN2c3ncnc4cc(-c5ccc(F)cc5Cl)c(Cl)c(c34)OC[C@@H]2C1 [Example 50, 1-[(8aS)-6-Chloro-5-(2-chloro-4-fluorophenyl)-8a,9,11,12-tetrahydropyrazino[2′,1′:3,4][1,4]oxazepino[5,6,7-de]quinazolin-10(8H)-yl]prop-2-en-1-one]	–
5.09 µM	57%	C=CC(=O)N1CCN2c3ncnc4cc(-c5cc(F)ccc5OC)c(Cl)c(c34)OC[C@@H]2C1 [Example 51, 1-[(8aS)-6-Chloro-5-(5-fluoro-2-methoxyphenyl)-8a,9,11,12-tetrahydropyrazino[2′,1′:3,4][1,4]oxazepino[5,6,7-de]quinazolin-10(8H)-yl]prop-2-en-1-one]	–
4.03 µM	26%	C=CC(=O)N1CCN2c3ncnc4cc(-c5cnccc5C)c(Cl)c(c34)OC[C@@H]2C1 [Example 55, 1-[(8aS)-6-Chloro-5-(4-methylpyridin-3-yl)-8a,9,11,12-tetrahydropyrazino[2′,1′:3,4][1,4]oxazepino[5,6,7-de]quinazolin-10(8H)-yl]prop-2-en-1-one]	–
4.39 µM	0%	C=CC(=O)N1CCN2c3ncnc4cc(-c5ccc(O)c(C#N)c5)c(Cl)c(c34)OC[C@@H]2C1 [Example 56, 5-[(8aS)-10-Acryloyl-6-chloro-8,8a,9,10,11,12-hexahydropyrazino[2′,1′:3,4][1,4]oxazepino[5,6,7-de]quinazolin-5-yl]-2-hydroxybenzonitrile]	–
2.42 µM	68%	C=CC(=O)N1CCN2c3ncnc4cc(-c5cccc6ocnc56)c(Cl)c(c34)OC[C@@H]2C1 [Example 57, 1-[(8aS)-5-(1,3-Benzoxazol-4-yl)-6-chloro-8a,9,11,12-tetrahydropyrazino[2′,1′:3,4][1,4]oxazepino[5,6,7-de]quinazolin-10(8H)-yl]prop-2-en-1-one]	–

— patent US20220127281A1, “HETEROARYL COMPOUNDS THAT INHIBIT G12C MUTANT RAS PROTEINS” (AstraZeneca AB, priority 2017, published 2022)
